Target: Gastrin-releasing peptide receptor (Homo sapiens, UniProt P30550)
Assay: Displacement of 125I[Tyr4]-bombesin from GRPR expressed in human PC3 cells
Format: cell-based, PC-3

Gastrin-releasing peptide receptor, sequence (P30550 whole entry): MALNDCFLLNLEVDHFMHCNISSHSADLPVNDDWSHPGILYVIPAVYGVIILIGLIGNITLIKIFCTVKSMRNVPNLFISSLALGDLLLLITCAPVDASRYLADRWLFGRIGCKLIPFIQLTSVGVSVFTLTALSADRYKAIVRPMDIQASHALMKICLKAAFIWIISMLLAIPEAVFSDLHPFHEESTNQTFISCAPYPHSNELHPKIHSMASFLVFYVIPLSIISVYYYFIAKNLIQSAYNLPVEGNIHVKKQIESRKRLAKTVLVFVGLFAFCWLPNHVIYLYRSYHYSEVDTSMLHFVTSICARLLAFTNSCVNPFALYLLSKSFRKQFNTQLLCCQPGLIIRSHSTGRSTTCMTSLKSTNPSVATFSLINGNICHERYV

For `CSCC[C@H](NC(=O)[C@H](CC(C)C)NC(=O)[C@H](Cc1cnc[nH]1)NC(=O)CNC(=O)[C@@H](NC(=O)[C@H](C)NC(=O)[C@H](Cc1c[nH]c2ccccc12)NC(=O)[C@H](CCC(N)=O)NC(=O)CCCCCCCNC(=O)CCCCCN)C(C)C)C(N)=O`, the EC50 was 0.373 nM.

From ChEMBL document CHEMBL1143880, “Targeting gastrin-releasing peptide receptors of prostate cancer cells for photodynamic therapy with a phthalocyanine-bombesin conjugate” (Bioorg Med Chem Lett, 2008)
